Data as given in US11116752B2, “Pharmaceutical composition comprising bicyclo-substituted pyrazolon azo derivative or salt thereof and preparation method thereof” (Jiangsu Hengrui Medicine Co., Ltd., priority 2016, dated 2021).

Assay: Stability test of Compound B and its mixtures with fillers (1:10)
Assay type: physicochemical
Description: The Compound B was mixed respectively with cellulose-lactose (cellactose 80), a simple mixture of cellulose and lactose (75%:25%), spray-dried lactose (Flowlac 100), microcrystalline cellulose PH302, or microcrystalline cellulose PH102 in a ratio of 1:10. The above mixtures and Compound B were placed respectively under conditions of 40° C./RH75%/open, 40° C./RH75%/closed, or 60° C./closed for 2 weeks and 4 weeks.

CC1=NN(c2ccc3c(c2)CCCC3)C(=O)/C1=N\Nc1cccc(-c2ccc(C(=O)O)o2)c1O [Compound B, (Z)-5-(2-hydroxy-3-(2-(3-methyl-5-oxo-1-(5,6,7,8-tetrahydronaphthalen-2-yl)-1H-pyrazol-4(5H)-ylidene)hydrazino)phenyl)furan-2-carboxylic acid]
Appearance (40° C./RH75%/closed, 2 Weeks): Dark red powder | Related substances (%) (40° C./RH75%/closed, 2 Weeks): 1.08% | Appearance (40° C./RH75%/closed, 4 Weeks): Dark red powder | Related substances (%) (40° C./RH75%/closed, 4 Weeks): 1.18% | Appearance (40° C./RH75%/open, 2 Weeks): Dark red mass | Related substances (%) (40° C./RH75%/open, 2 Weeks): 1.32% | Appearance (40° C./RH75%/open, 4 Weeks): Dark red mass | Related substances (%) (40° C./RH75%/open, 4 Weeks): 1.93% | Appearance (60° C./closed, 2 Weeks): Dark red mass | Related substances (%) (60° C./closed, 2 Weeks): 3.05% | Appearance (60° C./closed, 4 Weeks): Dark red mass | Related substances (%) (60° C./closed, 4 Weeks): 4.84% | Appearance (Initial point, 0 Day): Dark red powder | Related substances (%) (Initial point, 0 Day): 0.90%
